Data published in ChEMBL document CHEMBL4602623, “Inhibition of hedgehog signaling by stereochemically defined des-triazole itraconazole analogues” (Bioorg Med Chem Lett, 2020).

Experiment: Inhibition of Hedgehog signaling pathway in mouse ASZ001 cells assessed as decrease in Gli1 mRNA expression after 48 hrs by qRT-PCR analysis
Assay type: cell-based
Conditions: ASZ001, 48 h

Row | SMILES | IC50 [nM]
1 | CC[C@@H](C)n1ncn(-c2ccc(N3CCN(c4ccc(OC[C@@H]5CO[C@@](CCl)(c6ccc(Cl)cc6Cl)O5)cc4)CC3)cc2)c1=O | 25
2 | CC[C@@H](C)n1ncn(-c2ccc(N3CCN(c4ccc(OC[C@@H]5CO[C@@](c6ccc(Cl)cc6Cl)(C(F)(F)F)O5)cc4)CC3)cc2)c1=O | 69
3 | CC[C@@H](C)n1ncn(-c2ccc(N3CCN(c4ccc(OC[C@@H]5CO[C@@](CN6C(=O)c7ccccc7C6=O)(c6ccc(Cl)cc6Cl)O5)cc4)CC3)cc2)c1=O | 820
4 | CC[C@@H](C)n1ncn(-c2ccc(N3CCN(c4ccc(OC[C@@H]5CO[C@](CN6C(=O)c7ccccc7C6=O)(c6ccc(Cl)cc6Cl)O5)cc4)CC3)cc2)c1=O | 1070
5 | CC[C@@H](C)n1ncn(-c2ccc(N3CCN(c4ccc(OC[C@@H]5CO[C@](Cn6ccnc6)(c6ccc(Cl)cc6Cl)O5)cc4)CC3)cc2)c1=O | 110
6 | CC[C@@H](C)n1ncn(-c2ccc(N3CCN(c4ccc(OC[C@@H]5CO[C@@H](c6ccc(Cl)cc6Cl)O5)cc4)CC3)cc2)c1=O | 310
7 | CC[C@@H](C)n1ncn(-c2ccc(N3CCN(c4ccc(OC[C@@H]5CO[C@@](C(N)=O)(c6ccc(Cl)cc6Cl)O5)cc4)CC3)cc2)c1=O | 940

The remaining molecules from weak to strong by IC50, led by results:

Row | IC50 [nM] | SMILES
8 | 550 | CC[C@@H](C)n1ncn(-c2ccc(N3CCN(c4ccc(OC[C@@H]5CO[C@@](CN)(c6ccc(Cl)cc6Cl)O5)cc4)CC3)cc2)c1=O
9 | 300 | CC[C@@H](C)n1ncn(-c2ccc(N3CCN(c4ccc(OC[C@@H]5CO[C@H](c6ccc(Cl)cc6Cl)O5)cc4)CC3)cc2)c1=O
10 | 140 | CCC(C)n1ncn(-c2ccc(N3CCN(c4ccc(OCC5COC(Cn6cncn6)(c6ccc(Cl)cc6Cl)O5)cc4)CC3)cc2)c1=O (stereo not drawn) [ITRACONAZOLE]
11 | 110 | CC[C@@H](C)n1ncn(-c2ccc(N3CCN(c4ccc(OC[C@@H]5CO[C@@](Cn6ccnc6)(c6ccc(Cl)cc6Cl)O5)cc4)CC3)cc2)c1=O
12 | 67 | CC[C@@H](C)n1ncn(-c2ccc(N3CCN(c4ccc(OC[C@@H]5CO[C@](c6ccc(Cl)cc6Cl)(C(F)(F)F)O5)cc4)CC3)cc2)c1=O
13 | 20 | CC[C@@H](C)n1ncn(-c2ccc(N3CCN(c4ccc(OC[C@@H]5CO[C@](CCl)(c6ccc(Cl)cc6Cl)O5)cc4)CC3)cc2)c1=O
